# Measured values published in patent publication US20220039384A1, “SELECTIVE WEED CONTROL WITH HALAUXIFEN OR 4-AMINO-3-CHLORO-5-FLUORO-6-(4-CHLORO-2-FLUORO-3-METHOXYPHENYL) PYRIDINE-2-CARBOXYLIC ACID OR DERIVATIVES THEREOF IN VINEYARDS OR PERENNIAL CROPS” (Corteva Agriscience LLC, priority 2013, published 2022).
# Legend:
# Assay type in all cases: in vivo
# [1] = system: MALPA (Malva parviflora, smallflower malva); test: Field trial, post-emergence directed spring application (March), California vineyards: visual weed control
# Description: (§1) As used herein, selective pre- and post-emergence control of undesirable vegetation means preventing, reducing, killing, or otherwise adversely modifying the development of the undesirable vegetation in the presence of crop plants with limited adverse effect on the crop plants. For example, a broadleaf weed control of 80% (rated visually) with crop injury of less than or equal to 20% (rated visually) would constitute selective control. In some embodiments the adverse effect on crop plants is limited to less than 10% visually rated crop injury. Visual crop injury is a composite rating accounting for all phytotoxic effects including chlorosis, necrosis, growth inhibition, epinasty, delays in maturity and seed or fruit deformity. Visual weed control is a composite rating accounting for reductions in pest plant biomass and/or stand reduction.
# (§2) Small plot research experiments were conducted in Fresno, Calif., USA to evaluate the pre-emergence and post-emergence herbicidal weed control activity and the vines crop tolerance to pre-emergence and post-emergence application of Compound I and Compound II to the weeds. Application water volume of 100 to 187 liters per hectare (L/ha) was used for all experiments. All treatments were applied with a standard small plot carbon dioxide (CO2) backpack sprayer. All treatments were tank-mixed with Crop Oil Concentrate (COC), a well known adjuvant, at 2.34 L/ha. Experimental emulsifiable concentrate (EC) formulations were used for Compounds I and II. The dimethylammonium (DMA) salt of glyphosate was used in all trials. Pindar® GT is a commercial formulation containing a pre-mix of penoxsulam+oxyfluorfen (10+476 grams of active ingredient per liter (g ai/L), respectively). Vine crop stage was dormant (no leaves on the vines during the winter) or early spring growth at the time of Compound I or Compound II application. Generally, weeds were not emerged for the pre-emergence treatments or were at the two to six-leaf stage at the time of the post-emergence herbicide application.
# (§3) Tables 1, 2 and 6 provide weed control results from pre-emergence applications of Compounds I and/or II prior to weed emergence; Tables 4, 7 and 8 provide weed control results from post-emergence applications of Compounds I and/or II applied to actively growing weeds; Tables 3 and 5 provide vine response data from pre-emergence and post-emergence applications of Compound I respectively.
# [2] = system: MEDPO (Medicago polymorpha, California burclover); test: as above
# Description: as §1, §2, §3
# [3] = system: STEME (Stellaria media, common chickweed); test: as above
# Description: as §1, §2, §3
# [4] = system: EROCI (Erodium cicutarium, redstem filaree); test: as above
# Description: as §1, §2, §3
# [5] = system: CAPBP (Capsella bursa-pastoris, Shepherd's purse); test: Field trial, pre-emergence dormant application (December), California vineyards: visual weed control; settings: applied prior to weed emergence
# Description: as §1, §2, §3
# [6] = system: MALPA (Malva parviflora, smallflower malva); test: as above; settings: applied prior to weed emergence
# Description: as §1, §2, §3
# [7] = system: HORMU (Hordeum murinam, wall barley); test: as above; settings: applied prior to weed emergence
# Description: as §1, §2, §3
# [8] = system: ERICA (Conyza canadensis, horseweed); test: as above; settings: applied prior to weed emergence
# Description: as §1, §2, §3
smiles,measurement,setting,value
"COC(=O)c1nc(-c2ccc(Cl)c(OC)c2F)cc(N)c1Cl [I—Me, methyl 4-amino-3-chloro-6-(4-chloro-2-fluoro-3-methoxyphenyl)pyridine-2-carboxylate]",% Visual Control 59 DAA MALPA,[1]; 2.5 g ae/ha,80%
same,% Visual Control 59 DAA MALPA,[1]; 5 g ae/ha,90%
same,% Visual Control 59 DAA MALPA,[1]; 10 g ae/ha,96.7%
same,% Visual Control 59 DAA MEDPO,[2]; 2.5 g ae/ha,100%
same,% Visual Control 59 DAA MEDPO,[2]; 5 g ae/ha,100%
same,% Visual Control 59 DAA MEDPO,[2]; 10 g ae/ha,100%
same,% Visual Control 59 DAA STEME,[3]; 2.5 g ae/ha,46.7%
same,% Visual Control 59 DAA STEME,[3]; 5 g ae/ha,94%
same,% Visual Control 59 DAA STEME,[3]; 10 g ae/ha,95.7%
same,% Visual Control 59 DAA EROCI,[4]; 2.5 g ae/ha,43.3%
same,% Visual Control 59 DAA EROCI,[4]; 5 g ae/ha,89.7%
same,% Visual Control 59 DAA EROCI,[4]; 10 g ae/ha,94%
same,% Visual Control 90 DAA CAPBP,[5]; 10 g ae/ha,62%
same,% Visual Control 90 DAA CAPBP,[5]; 20 g ae/ha,58%
same,% Visual Control 90 DAA CAPBP,[5]; 40 g ae/ha,82%
same,% Visual Control 90 DAA MALPA,[6]; 10 g ae/ha,85%
same,% Visual Control 184 DAA MALPA,[6]; 10 g ae/ha,45%
same,% Visual Control 90 DAA MALPA,[6]; 20 g ae/ha,88%
same,% Visual Control 184 DAA MALPA,[6]; 20 g ae/ha,60%
same,% Visual Control 90 DAA MALPA,[6]; 40 g ae/ha,89%
same,% Visual Control 184 DAA MALPA,[6]; 40 g ae/ha,47%
same,% Visual Control 90 DAA HORMU,[7]; 10 g ae/ha,100%
same,% Visual Control 184 DAA HORMU,[7]; 10 g ae/ha,90%
same,% Visual Control 90 DAA HORMU,[7]; 20 g ae/ha,100%
same,% Visual Control 184 DAA HORMU,[7]; 20 g ae/ha,88%
same,% Visual Control 90 DAA HORMU,[7]; 40 g ae/ha,100%
same,% Visual Control 184 DAA HORMU,[7]; 40 g ae/ha,92%
same,% Visual Control 90 DAA ERICA,[8]; 10 g ae/ha,75%
same,% Visual Control 184 DAA ERICA,[8]; 10 g ae/ha,92%
same,% Visual Control 90 DAA ERICA,[8]; 20 g ae/ha,100%
same,% Visual Control 184 DAA ERICA,[8]; 20 g ae/ha,97%
same,% Visual Control 90 DAA ERICA,[8]; 40 g ae/ha,100%
same,% Visual Control 184 DAA ERICA,[8]; 40 g ae/ha,100%
